From US20190298664A1, “METHOD AND KIT FOR MYOCARDIAL REPERFUSION, AND METHOD FOR ATTENUATING OR REDUCING MYOCARDIAL REPERFUSION INJURY” (Academia Sinica, priority 2018, published 2019)

How the values were obtained:
[1] = test system: myocardial protein tyrosine phosphorylation; experiment: Immunoblotting of heart extracts of I/R mice (anti-pTyr, p-Paxillin, p-p130cas, p-ErbB-2); format: in vivo, mouse; settings: 2 mg/kg IP ten min before reperfusion; four hours post-I/R
Procedure: (§1) We anesthetized the mouse with 5% isoflurane mixed with room air until loss of sensation of pain and then maintained the mouse in anesthesia status with 2% isoflurane mixed with room air through the whole procedure. The mouse's body temperature was maintained at 37° C. by a heating pad. After the mouse was intubated, we provided artificial ventilation to the mouse with a small animal ventilator. Then the chest cavity was opened at the second intercostal space and homemade chest retractors were utilized to widen the incision. We pulled the pericardium apart carefully and exposed the left anterior descending artery (LAD). A 7-0 silk was put underneath the LAD at the position of the tip of the left auricle, a 6 mm length of PE-10 tube was put on the surface of the LAD, and then a double knot was made to occlude the blood flow of LAD. The success of ligation was confirmed by paling the anterior wall of the LV. For the reperfusion group, the LAD knot would be untied for the purpose of reperfusion after 1 hour of ischemia. For the sham operation group, all procedures were the same except for the knot that occluded the LAD flow. After the successful procedure, we left the silk in situ, closed the chest cavity and weaned the animal from the ventilator.
Hearts from mice received different treatment were gently homogenized in ice-cold RIPA buffer [250 mM Tris-HCl pH 7.4, 750 mM NaCl, detergent mix (5% NP-40, 2.5% Na-deoxycholate and 0.5% SDS), and 1× protease inhibitor cocktail (EDTA free)] containing phosphatase inhibitors (2 mM Na3VO4, 10 mM NaF, and 10 mM Na2P2O7). The homogenates were centrifuged at 16,100×g at 4° C. for 10 minutes to remove the debris. Protein concentrations were determined by Bradford protein assay. Equal amounts of protein extract from those mice were separated by SDS-PAGE on an 8% or 10% polyacrylamide gel and then transferred to PVDF membrane. Membranes were incubated with indicated primary antibody at 4° C. overnight followed by incubated with secondary antibodies for 1 hour at room temperature. The protein abundance was detected by the signal intensity of each specific band.

myocardial PTP activity = experiment: Overall myocardial PTP activity by pNPP assay in heart extracts of I/R mice; format: in vivo, mouse; settings: 2 mg/kg IP ten min before reperfusion; four hours post-I/R
Procedure: as §1, with “by […]” for “by paling the”, “flow. […] The released p-nitrophenolate ion is measured by spectrophotometry reading” for “flow. After”, “the absorbance at 405 nm. […]” for “the successful procedure, we left”, “[…]” for “the silk in situ, closed the chest cavity and weaned the animal from the ventilator.”

## CC(=O)OC[C@H]1O[C@@H]([S-])[C@H](OC(C)=O)[C@@H](OC(C)=O)[C@@H]1OC(C)=O.CCP(CC)CC.[Au+] [Auranofin, auranofin]
[1]
  Decreased protein tyrosine phosphorylation in the I/R heart (anti-pTyr): reversed
  I/R-induced decrease of pTyr signaling in Paxillin and p130Cas: restored
  I/R-suppressed phosphorylation of Tyr1248 in ErbB-2: restored
Myocardial PTP activity
  Overall myocardial PTP activity: significantly suppressed
